Results on three compounds are retold here after US8486991B2, “Enantiomerically pure phosphoindoles as HIV inhibitors” (Idenix Pharmaceuticals, Inc., priority 2006, dated 2013).

Read-outs that look alike come from different tables or passages of the source.

Assay [1] addresses T1, human DNA polymerase alpha (Homo sapiens, UniProt P09884).
T1 sequence (P09884 1-1462): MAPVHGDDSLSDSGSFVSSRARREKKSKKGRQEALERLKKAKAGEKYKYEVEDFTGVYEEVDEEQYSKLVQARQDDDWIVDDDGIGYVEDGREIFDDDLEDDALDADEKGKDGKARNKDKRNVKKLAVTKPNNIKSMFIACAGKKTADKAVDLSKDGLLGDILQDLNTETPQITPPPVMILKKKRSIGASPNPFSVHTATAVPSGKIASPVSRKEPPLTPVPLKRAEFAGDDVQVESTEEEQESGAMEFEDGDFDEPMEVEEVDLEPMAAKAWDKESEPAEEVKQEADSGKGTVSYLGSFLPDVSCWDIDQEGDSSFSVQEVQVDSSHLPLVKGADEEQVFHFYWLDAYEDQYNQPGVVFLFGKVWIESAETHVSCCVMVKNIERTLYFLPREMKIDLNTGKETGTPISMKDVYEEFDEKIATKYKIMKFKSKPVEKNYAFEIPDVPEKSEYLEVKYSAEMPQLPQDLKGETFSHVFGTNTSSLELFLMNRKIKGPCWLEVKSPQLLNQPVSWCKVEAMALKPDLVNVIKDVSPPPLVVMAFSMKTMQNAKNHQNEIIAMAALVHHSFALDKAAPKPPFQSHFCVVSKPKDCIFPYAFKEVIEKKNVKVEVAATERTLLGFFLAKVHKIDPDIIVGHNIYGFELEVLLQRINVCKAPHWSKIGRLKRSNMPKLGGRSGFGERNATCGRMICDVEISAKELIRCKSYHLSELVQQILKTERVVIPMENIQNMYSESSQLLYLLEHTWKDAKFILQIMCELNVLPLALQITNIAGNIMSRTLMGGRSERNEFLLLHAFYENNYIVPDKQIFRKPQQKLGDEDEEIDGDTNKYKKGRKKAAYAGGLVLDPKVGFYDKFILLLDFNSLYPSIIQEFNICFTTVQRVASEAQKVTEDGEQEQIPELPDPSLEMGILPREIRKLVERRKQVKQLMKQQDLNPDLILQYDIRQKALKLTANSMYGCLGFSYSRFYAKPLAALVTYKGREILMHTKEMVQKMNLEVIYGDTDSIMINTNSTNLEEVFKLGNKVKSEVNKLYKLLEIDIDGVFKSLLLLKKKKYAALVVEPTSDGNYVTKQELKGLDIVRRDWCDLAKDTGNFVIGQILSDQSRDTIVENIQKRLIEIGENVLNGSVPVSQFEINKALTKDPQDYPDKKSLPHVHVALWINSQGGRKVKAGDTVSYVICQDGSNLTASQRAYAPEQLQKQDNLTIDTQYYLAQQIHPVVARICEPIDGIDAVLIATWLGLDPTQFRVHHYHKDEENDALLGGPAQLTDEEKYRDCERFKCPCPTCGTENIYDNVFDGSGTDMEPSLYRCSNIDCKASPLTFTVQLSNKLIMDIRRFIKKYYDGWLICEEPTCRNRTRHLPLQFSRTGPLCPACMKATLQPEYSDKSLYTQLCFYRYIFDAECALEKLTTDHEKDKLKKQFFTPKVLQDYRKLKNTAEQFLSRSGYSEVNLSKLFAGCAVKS
Put plainly: Human cellular DNA polymerase alpha assay. It is filed as biochemical. The source says: HIV RT, like other viral polymerase, shares limited structural homology with the cellular DNA polymerases responsible for normal nuclear and mitochondrial DNA synthesis and repair. This raises the formal possibility that inhibitors of HIV RT might inhibit cellular polymerases, resulting in cellular toxicity. In particular, inhibition of polymerase gamma has the potential to result in mitochondrial toxicity. The ability of Compound I and Compound III to inhibit cellular DNA polymerases was assessed using standard in vitro assays (Table 5).

Another assay has as its system HIV-1 W.T. (BH10) virus. Put plainly: microbe, parasite or virus in culture. It is filed as cell-based. The settings on record: for Fold Change, W.T.: Table 13, MT-2. The source says: The HIV-1 strains used were BH10, NL4-3 and IIIB: the cell lines were U-937 cells (human monocytes derived from a histiocytic lymphoma); MOLT-4 cells (a human T lymphoblastic leukemia cell line); H-9 cells (human lymphoblastic T cells); and MT-2 and MT-4 human leukemia T cells.

Assay [2] deals with 9 different HIV-1 subtypes (A, B, C, D, F1, G, H, AE, AG), 18 viruses. Kind of assay: PhenoSense testing, HIV-1 subtype panel. The settings on record: Human immunodeficiency virus 1, read-out: potency range, panel of 9 different HIV-1 subtypes. It counts as cell-based. The source says:
The activities of the test and control compounds were next tested against a subtype panel which covers all major HIV-1 subtypes or clades (A, B, C, D, F1, G, H, AE and AG). This panel was part of a 64 virus panel selected from the large library of clinical isolates Monogram BioSciences (formerly ViroLogics). Each of the subtypes in the panel was represented by 2 distinct viruses which share many sequence similarities, but also some key differences and therefore could respond differently to one or more of the drugs included in this study.

Where [3] appears, read: Human immunodeficiency virus 1, MT2, read-out: Average EC50 Values ± Standard Deviation, W.T. (BH10).
Setting [4] is: Human immunodeficiency virus 1, MT2, read-out: Average EC50 Values ± Standard Deviation, host MT-2, virus BH10.
[5] abbreviates: Table 5, read-out: Average IC50 Values ± Standard Deviation, DNA Pol Alpha.

Take `CO[P@](=O)(c1cc(C)cc(/C=C/C#N)c1)c1c(C(N)=O)[nH]c2ccc(Cl)c(F)c12` [Compound I, (2-Carbamoyl-5-chloro-4-fluoro-1H-indol-3-yl)-[3-((E)-2-cyano-vinyl)-5-methyl-phenyl]-(R)-phosphinic acid methyl ester]: the IC50 in assay [1] (Average IC50 Values ± Standard Deviation, DNA Pol Alpha, Table 5) is 146000 ± 44500 nM; in assay [1] (Mean IC50 Values ± Standard Deviation, DNA Pol Alpha, Table 6, N=4), 146000 ± 44500 nM. Besides, the “Average IC50 Values ± Standard Deviation, DNA Pol Alpha” value in assay [1] (Table 5) is reported as “did not reach an IC50”. Besides, the figures for the EC50 (in the assay with HIV-1 W.T. (BH10) virus (setting [3]); in the assay with HIV-1 W.T. (BH10) virus (setting [4]); in assay [2]) were 0.9 ± 0.6 nM, 0.9 ± 0.6 nM and 0.25 to 3.2 nM, respectively. Besides, the “Fold Change, W.T.” value with HIV-1 W.T. (BH10) virus amounted to 1 fold.
Consider `O=C1Nc2ccc(Cl)cc2C(C#CC2CC2)(C(F)(F)F)O1` (stereo not shown) [EFV, 6-chloro-4-cyclopropylethynyl-4-trifluoromethyl-1,4-dihydro-2H-3,1-benzoxazin-2-one, reference compound], for which the “Average IC50 Values ± Standard Deviation, DNA Pol Alpha” value in assay [1] (Table 5) is reported as “did not reach an IC50”. Moreover, the IC50 in assay [1] (setting [5]) is 109000 ± 40900 nM; in assay [1] (Table 6, N=4, read-out: Mean IC50 Values ± Standard Deviation, DNA Pol Alpha), 109000 ± 40900 nM. Also, the EC50 in the assay on HIV-1 W.T. (BH10) virus (setting [3]) was 0.8 ± 0.2 nM; with HIV-1 W.T. (BH10) virus (setting [4]), 0.8 ± 0.2 nM; in assay [2], 0.4 to 3.1 nM.
Consider `CO[P@](=O)(c1cc(C)cc(/C=C/C#N)c1)c1c(C(N)=O)[nH]c2ccc(Cl)cc12` [Compound III, (2-Carbamoyl-5-chloro-1H-indol-3-yl)-[3-((E)-2-cyano-vinyl)-5-methyl-phenyl]-(R)-phosphinic acid methyl ester], for which, in assay [1] (Table 5), the “Average IC50 Values ± Standard Deviation, DNA Pol Alpha” value is “did not reach an IC50”. In addition, in assay [1] (setting [5]), the half-inhibitory concentration (IC50) worked out at 159000 ± 84300 nM. Further, the EC50 is 1.1 ± 0.4 nM in the assay with HIV-1 W.T. (BH10) virus (setting [3]), 1.1 ± 0.4 nM in the assay on HIV-1 W.T. (BH10) virus (setting [4]) and 0.2 to 2.14 nM in assay [2]. In addition, in the assay on HIV-1 W.T. (BH10) virus, the “Fold Change, W.T.” value came to 1 fold.
